The subject of the test is B16F10 melanoma cells. Nature of the test: Lung metastasis and survival after IV B16F10 melanoma cells (Example 16). It is filed as in vivo, C57BL6 mice. Particulars: 4 mg/mouse orally daily for two weeks. The protocol:
C57BL6 mice received 10^5 B16F10 melanoma cells via IV injection at day 0. At day 7, mice were randomized into one of two groups (n=6 per group): an untreated group and a group treated orally with Compound B at 4 mg/mouse daily for two weeks.
At the end of the first week of treatment (14 days after tumor injection), three mice from each group were euthanized, and lung metastasis was counted (FIG. 11A). By the end of the second week of treatment (21 days after tumor injection), two out of the three remaining control mice had died. The remaining control mouse and the three remaining Compound B-treated mice were euthanized, and lung metastasis assessed (FIG. 111B).

Turning to `O=C(O)[C@H](O)[C@@H](O)C(=O)OCCCc1ccccc1` [Compound B, (2R,3R)-2,3-dihydroxy-4-oxo-4-(3-phenylpropoxy)butanoic acid], the lung metastasis result is given as “controlled (e.g., prevented) metastasis” and the “survival compared to untreated mice” value was “improved survival”.

(Values after patent US20250177340A1, “Tartaric Acid Analogs and Uses Thereof” (Lapix Therapeutics, Inc., priority 2021, published 2025).)
